Assay results reported in patent US8729031B2, “Compounds” (priority 2009, dated 2014).
≈ marks a conversion by molar mass, not a printed value. Like-named read-outs stand apart in the source and are kept apart here.

Assays:
Assay type in all cases: cell-based
S. aureus SH1000 = settings: for MIC against Stapholococcus aureus strain SH1000: strain SH1000, text b20
Method: (§1) Susceptibility testing with the exception of Streptococcus pneumoniae was performed by two-fold serial dilutions in Mueller Hinton Broth supplemented with 50 μg/mL Ca^2+. Susceptibility testing of S. pneumoniae was performed by two-fold serial dilutions in Brain-Heart-Infusion Broth supplemented with 50 μg/mL Ca^2+.

S. aureus R33 (MRSA) = settings: for MIC against Stapholococcus aureus strain R33: strain R33, text b20
Method: as §1

Streptococcus pneumoniae = assay: microbe, parasite or virus in culture; settings: Streptococcus pneumoniae, read-out: MIC
Method: as §1

Compound	MIC in μg/mL against strain S. aureus SH1000 (S. aureus SH1000)	MIC in μg/mL against strain S. aureus R33 (MRSA) (S. aureus R33 (MRSA))	further results
CC[C@H](C)[C@@H]1NC(=O)[C@@H]2NC(=O)[C@H](CC(C)C)NC(=O)[C@H](NC(=O)[C@@H]3CSC[C@@H](N)C(=O)N[C@@H](CO)C(=O)NCC(=O)N[C@@H](Cc4c[nH]c5ccccc45)C(=O)N[C@@H](C(C)C)C(=O)N3)[C@H](C)SC[C@H](NC(=O)[C@H](CCC(=O)O)NC1=O)C(=O)NCC(=O)N[C@H]1C(=O)N[C@@H](CC(C)C)C(=O)N[C@@H](C(C)C)C(=O)N[C@@H](CS[C@H]2C)C(=O)N[C@@H](C)C(=O)N[C@H](C(=O)N2CCN(c3ccc(Cl)c(Cl)c3)CC2)CS[C@H]1C [Example 10, Deoxyactagardine B [4-(3′,4′-dichlorophenyl)piperazine]monocarboxamide]	8 µg/mL (≈ 3.83 µM)	–	–
deoxyactagardine B N-[1-(3-dimethylamino propyl)piperazine]monocarboxamide [reference compound]	–	–	MIC against Stapholococcus aureus strain SH1000 (S. aureus SH1000): approximately 64 μL/mL; MIC against Stapholococcus aureus strain R33 (S. aureus R33 (MRSA)): approximately 64 μL/mL
Deoxyactagardine B 19-[4-(4′-chlorophenyl)piperazine]monocarboxamide [Example 4]	≦4 μg/mL	≦4 μg/mL	–
Deoxyactagardine B (2,5-dichlorobenzylamine)monocarboxamide [Example 21]	≦4 μg/mL	≦4 μg/mL	–
CC[C@H](C)[C@@H]1NC(=O)[C@@H]2NC(=O)[C@H](CC(C)C)NC(=O)[C@H](NC(=O)[C@@H]3CSC[C@@H](N)C(=O)N[C@@H](CO)C(=O)NCC(=O)N[C@@H](Cc4c[nH]c5ccccc45)C(=O)N[C@@H](C(C)C)C(=O)N3)[C@H](C)SC[C@H](NC(=O)[C@H](CCC(=O)O)NC1=O)C(=O)NCC(=O)N[C@H]1C(=O)N[C@@H](CC(C)C)C(=O)N[C@@H](C(C)C)C(=O)N[C@@H](CS[C@H]2C)C(=O)N[C@@H](C)C(=O)N[C@H](C(=O)NCc2ccc(Br)cc2)CS[C@H]1C [Example 9, Deoxyactagardine B [4-bromobenzylamine]monocarboxamide]	8 µg/mL (≈ 3.92 µM)	–	–
Deoxyactagardine B [3-(2′-aminomethyl-4′-(2″-nitro-4″-chlorophenyl)-furanyl)propylamine]monocarboxamide [Example 33]	≦4 μg/mL	≦4 μg/mL	–
Deoxyactagardine B (2-chlorobenzylamine)monocarboxamide [Example 23]	≦4 μg/mL	≦4 μg/mL	–
CC[C@H](C)[C@@H]1NC(=O)[C@@H]2NC(=O)[C@H](CC(C)C)NC(=O)[C@H](NC(=O)[C@@H]3CSC[C@@H](N)C(=O)N[C@@H](CO)C(=O)NCC(=O)N[C@@H](Cc4c[nH]c5ccccc45)C(=O)N[C@@H](C(C)C)C(=O)N3)[C@H](C)SC[C@H](NC(=O)[C@H](CCC(=O)O)NC1=O)C(=O)NCC(=O)N[C@H]1C(=O)N[C@@H](CC(C)C)C(=O)N[C@@H](C(C)C)C(=O)N[C@@H](CS[C@H]2C)C(=O)N[C@@H](C)C(=O)N[C@H](C(=O)NCc2ccc(F)cc2F)CS[C@H]1C [Example 15, Deoxyactagardine B (2,4-difluorobenzylamine)monocarboxamide]	8 µg/mL (≈ 4 µM)	8 µg/mL (≈ 4 µM)	–
CC[C@H](C)[C@@H]1NC(=O)[C@@H]2NC(=O)[C@H](CC(C)C)NC(=O)[C@H](NC(=O)[C@@H]3CSC[C@@H](N)C(=O)N[C@@H](CO)C(=O)NCC(=O)N[C@@H](Cc4c[nH]c5ccccc45)C(=O)N[C@@H](C(C)C)C(=O)N3)[C@H](C)SC[C@H](NC(=O)[C@H](CCC(=O)O)NC1=O)C(=O)NCC(=O)N[C@H]1C(=O)N[C@@H](CC(C)C)C(=O)N[C@@H](C(C)C)C(=O)N[C@@H](CS[C@H]2C)C(=O)N[C@@H](C)C(=O)N[C@H](C(=O)NCCCCCCNS(=O)(=O)c2c(Cl)cc(Cl)cc2Cl)CS[C@H]1C [Example 27, Deoxyactagardine B [6-(2′,4′,6′-trichlorobenzenesulfonamido)hexylamine]monocarboxamide]	8 µg/mL (≈ 3.61 µM)	8 µg/mL (≈ 3.61 µM)	–
Deoxyactagardine B (3,4-dichlorobenzylamine)monocarboxamide [Example 22]	≦4 μg/mL	≦4 μg/mL	–
Actagardine (3,5-dichlorobenzylamine)monocarboxamide [Example 2]	≦4 μg/mL	≦4 μg/mL	–
deoxyactagardine B N-[1-(1-methyl-4-piperidinyl)piperazine]monocarboxamide [reference compound]	–	–	MIC against Stapholococcus aureus strain SH1000 (S. aureus SH1000): approximately 64 μL/mL; MIC against Stapholococcus aureus strain R33 (S. aureus R33 (MRSA)): approximately 64 μL/mL
Deoxyactagardine B [3-(2′-aminomethyl-4′-(2″,4″-dichlorophenyl)-furanyl)propylamine]monocarboxamide [Example 32]	≦4 μg/mL	≦4 μg/mL	–
CC[C@H](C)[C@@H]1NC(=O)[C@@H]2NC(=O)[C@H](CC(C)C)NC(=O)[C@H](NC(=O)[C@@H]3CSC[C@@H](N)C(=O)N[C@@H](CO)C(=O)NCC(=O)N[C@@H](Cc4c[nH]c5ccccc45)C(=O)N[C@@H](C(C)C)C(=O)N3)[C@H](C)SC[C@H](NC(=O)[C@H](CCC(=O)O)NC1=O)C(=O)NCC(=O)N[C@H]1C(=O)N[C@@H](CC(C)C)C(=O)N[C@@H](C(C)C)C(=O)N[C@@H](CS[C@H]2C)C(=O)N[C@@H](C)C(=O)N[C@H](C(=O)N2CCN(Cc3ccc(Br)cc3F)CC2)CS[C@H]1C [Example 7, Deoxyactagardine B [4-(2′-fluoro-4′-bromobenzyl)piperazine]monocarboxamide]	8 µg/mL (≈ 3.76 µM)	8 µg/mL (≈ 3.76 µM)	–
CC[C@H](C)[C@@H]1NC(=O)[C@@H]2NC(=O)[C@H](CC(C)C)NC(=O)[C@H](NC(=O)[C@@H]3CSC[C@@H](N)C(=O)N[C@@H](CO)C(=O)NCC(=O)N[C@@H](Cc4c[nH]c5ccccc45)C(=O)N[C@@H](C(C)C)C(=O)N3)[C@H](C)SC[C@H](NC(=O)[C@H](CCC(=O)O)NC1=O)C(=O)NCC(=O)N[C@H]1C(=O)N[C@@H](CC(C)C)C(=O)N[C@@H](C(C)C)C(=O)N[C@@H](CS[C@H]2C)C(=O)N[C@@H](C)C(=O)N[C@H](C(=O)NCCCNCCCNCc2cc(Cl)cc(Cl)c2)CS[C@H]1C [Example 20, Deoxyactagardine B [3-(3′-(3″,5″-dichlorobenzylamino)propylamino)propylamine]monocarboxamide]	8 µg/mL (≈ 3.73 µM)	8 µg/mL (≈ 3.73 µM)	–
Deoxyactagardine B (4-chlorobenzylamine)monocarboxamide [Example 25]	≦4 μg/mL	≦4 μg/mL	–
CC[C@H]1OC(=O)[C@H](C)[C@@H](O[C@H]2C[C@@](C)(OC)[C@@H](O)[C@H](C)O2)[C@H](C)[C@@H](O[C@@H]2O[C@H](C)C[C@H](N(C)C)[C@H]2O)[C@](C)(O)C[C@@H](C)C(=O)[C@H](C)[C@@H](O)[C@]1(C)O [Erythromycin, reference compound]	–	–	MIC (Streptococcus pneumoniae; isolate QB37301, penicillin Resistant): > 32 µg/mL; MIC (Streptococcus pneumoniae; isolate QB37302, penicillin Resistant): > 32 µg/mL; MIC (Streptococcus pneumoniae; isolate QB37303, penicillin Intermediate): ≤ 0.015 µg/mL; MIC (Streptococcus pneumoniae; isolate QB37304, penicillin Susceptible): 8 µg/mL (≈ 10.9 µM); MIC (Streptococcus pneumoniae; isolate QB37306, penicillin Susceptible): ≤ 0.015 µg/mL; MIC (Streptococcus pneumoniae; isolate QB37307, penicillin Intermediate): ≤ 0.015 µg/mL; MIC (Streptococcus pneumoniae; isolate QB37308, penicillin Susceptible): ≤ 0.015 µg/mL; MIC (Streptococcus pneumoniae; isolate QB37309, penicillin Resistant): 2 µg/mL (≈ 2.73 µM); MIC (Streptococcus pneumoniae; isolate QB37310, penicillin Resistant): > 32 µg/mL; MIC (Streptococcus pneumoniae; isolate QB37311, penicillin Resistant): > 32 µg/mL; MIC (Streptococcus pneumoniae; isolate QB37312, penicillin Intermediate): > 32 µg/mL; MIC (Streptococcus pneumoniae; isolate QB37313, penicillin Susceptible): > 32 µg/mL; MIC (Streptococcus pneumoniae; isolate QB37314, penicillin Resistant): > 32 µg/mL; MIC (Streptococcus pneumoniae; isolate QB37315, penicillin Susceptible): ≤ 0.015 µg/mL; MIC (Streptococcus pneumoniae; isolate QB37316, penicillin Susceptible): ≤ 0.015 µg/mL; MIC (Streptococcus pneumoniae; isolate QB37317, penicillin Susceptible): ≤ 0.015 µg/mL; MIC (Streptococcus pneumoniae; isolate QB37318, penicillin Resistant): 4 µg/mL (≈ 5.45 µM); MIC (Streptococcus pneumoniae; isolate QB37319, penicillin Resistant): > 32 µg/mL
Deoxyactagardine B (3-chlorobenzylamine)monocarboxamide [Example 24]	≦4 μg/mL	≦4 μg/mL	–
